This is an account of results in publication PMC7304060, “Broad Spectrum Deubiquitinase Inhibition Induces Both Apoptosis and Ferroptosis in Cancer Cells” (Frontiers in Oncology, 2020).

Peptide text beside a SMILES is read from it.

This experiment deals with T1, 20S proteasome (chymotrypsin-like peptidase) (Homo sapiens, UniProt P28074).
T1 construct: gene PSMB5; purified human 20S proteasome; chymotrypsin-like site (beta5, with beta6 contact)
T1 sequence (P28074 60-263): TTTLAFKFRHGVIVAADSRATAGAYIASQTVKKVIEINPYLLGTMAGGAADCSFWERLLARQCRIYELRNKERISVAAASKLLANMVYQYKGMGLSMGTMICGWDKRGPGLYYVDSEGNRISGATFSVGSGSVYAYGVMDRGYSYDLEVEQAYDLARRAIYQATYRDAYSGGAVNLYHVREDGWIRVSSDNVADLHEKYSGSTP
T1 sequence (P20618 29-241 partner): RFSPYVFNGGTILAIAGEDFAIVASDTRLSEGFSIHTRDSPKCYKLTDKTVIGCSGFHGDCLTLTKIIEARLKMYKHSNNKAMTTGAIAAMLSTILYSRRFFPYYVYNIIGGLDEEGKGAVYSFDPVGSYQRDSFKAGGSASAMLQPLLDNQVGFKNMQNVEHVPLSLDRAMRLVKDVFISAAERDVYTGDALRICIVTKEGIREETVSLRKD
As to the kind of experiment: fluorogenic peptidase assay. The note with it: 37 °C; chymotrypsin-like site. The experiment is classed as biochemical.

As to `Cc1cc(=O)oc2cc(NC(=O)[C@H](Cc3ccc(O)cc3)NC(=O)[C@@H](NC(=O)[C@H](CC(C)C)NC(=O)[C@H](CC(C)C)NC(=O)CCC(=O)O)C(C)C)ccc12` [Suc-LLVY-AMC, Suc-Leu-Leu-Val-Tyr-aminomethylcoumarin] (HELM PEPTIDE1{[O=C(O)CCC(=O)[*:2]].L.L.V.Y.[Cc1cc(=O)oc2cc(N[*:1])ccc12]}$$$$V2.0), the fluorogenic peptidase assay result is “Chymotrypsin-like activity of the proteasome was assessed with fluorogenic Suc-LLVY-AMC substrate”.
